{"source": "patent US20180169242A1", "about": "“PHARMACEUTICAL COMBINATION FOR CANCER TREATMENT AND THE THERAPEUTIC USE THEREOF” (Shiner Pharm Corp., priority 2016, published 2018)", "test_system": "Lewis lung carcinoma cells", "test": "Local tumor growth (tumor volume) in Lewis lung carcinoma animal model", "format": "in vivo, C57BL/6 mice", "details": "metformin 200 mg/kg/day, fluvastatin 80 mg/kg/day", "procedure": "Lewis lung carcinoma (LLC) model was established.\nThe cancer inhibiting effect of metformin and statin was examined. After the mice were sacrificed, tumor volume on the right thigh of the mice was measured to deteiiiiine local tumor growth.", "data": [{"smiles": "CN(C)C(=N)N=C(N)N", "note": "[metformin]", "values": [{"measurement": "therapeutic effect on tumor volume compared with the sham group", "setting": "no irradiation, day 7 to day 11, tumor volume on right thigh at day 21", "result": "did not exhibit any therapeutic effect"}, {"measurement": "local tumor growth / tumor volume when combined with radiotherapy", "setting": "with 40 Gy irradiation in two 20 Gy fractions (day 8, day 10), compared with RT alone, RT+M and RT+S, day 21", "result": "neither combining radiotherapy with metformin alone or with statin alone could suppress local tumor growth"}]}]}
